Test results reported in patent US4443603A, “Piperazine derivatives, of aromatic acids” (Kowa Company Limited, priority 1981, dated 1984).

Columns and labels:
Assay type in all cases: biochemical
[1] = molecular target: Chymotrypsin (Bos taurus, UniProt P00766); assay: Chymotrypsin inhibitory effects (Hestrin color method, acetyl-L-tyrosine ethyl ester substrate); conditions: pH 8.0, 10 min preincubation, 30 min at 37° C., ethyl ester of acetyl-L-tyrosine; read-out: 50% Inhibitory Concentration, Chymotrypsin
Description: Following the procedure of Muramatsu et al [The Journal of Biochemistry, 62, 408 (1967)], a mixture of 0.1 ml of a dimethylsulfoxide solution of each test compound, 0.1 ml of water and 0.1 ml of a buffer solution containing chymotrypsin in an amount of 10 μg/ml (a 0.1 mole trishydrochloric acid buffer solution, pH 8.0) was incubated for 10 minutes, combined with 0.1 ml of a buffer solution containing 25 millimoles of an ethyl ester of acetyl-L-tyrosine and then reacted with the ethyl ester at 37° C. for 30 minutes. The remaining substrate was caused to develop a color in accordance with the Hestrin method, and the amount was determined by measuring the absorbance at 530 nm. As a control compound, use was made of tosylphenylalanine chloromethyl ketone.

[2] = molecular target: T1, Trypsin (Bos taurus, UniProt P00760); assay: Trypsin inhibitory effects (Hestrin color method, tosylarginine methyl ester substrate); conditions: pH 8.0, 10 min preincubation, 30 min at 37° C., methyl ester of tosylarginine; read-out: 50% Inhibitory Concentration, Trypsin
T1 sequence (P00760 24-246): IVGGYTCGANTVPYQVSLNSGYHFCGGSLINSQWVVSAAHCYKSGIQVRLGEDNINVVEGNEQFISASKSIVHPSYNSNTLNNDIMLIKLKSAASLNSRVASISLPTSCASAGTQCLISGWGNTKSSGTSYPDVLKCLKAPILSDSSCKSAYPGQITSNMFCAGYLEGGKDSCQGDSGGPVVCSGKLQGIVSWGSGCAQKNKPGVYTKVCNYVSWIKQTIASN
Description: Following the procedure of Muramatsu et al [The Journal of Biochemistry, 58, 214 (1967)], a mixture of 0.1 ml of a dimethylsufoxide solution of each test compound, 0.1 ml of a buffer solution (obtained by dissolving 10 millimoles of calcium chloride in a 0.1 mole trishydrochloric acid buffer solution, pH 8.0) and 0.1 ml of a buffer solution containing trypsin in an amount of 2.5 μg/ml was incubated for 10 minutes, mixed with 0.2 ml of a buffer solution containing 25 millimoles of a methyl ester of tosylarginine and then reacted with the methyl ester at 37° C. for 30 minutes. The remaining substrate was caused to develop a color in accordance with the Hestrin method, and the amount was determined by measuring the absorbance at 530 nm.

[3] = molecular target: Thrombin (Homo sapiens, UniProt P00734); assay: Thrombin inhibitory effects (Hestrin color method, tosylarginine methyl ester substrate); conditions: pH 7.4, 10 min preincubation, 30 min at 37° C., methyl ester of tosylarginine; read-out: 50% Inhibitory Concentration, Thrombin
Description: Following the procedure of Tamura et al [Biochim. Biophys. Acta, 484, 417 (1977)], a mixture of 0.1 ml of a dimethylsulfoxide solution of each test compound, 0.1 ml of a buffer solution (a 0.1 mole sodium phosphate buffer, pH 7.4) and 0.1 ml of a buffer solution containing thrombin in an amount of 37.5 units/ml was incubated for 10 minutes, mixed with 0.2 ml of a buffer solution containing 25 millimoles of a methyl ester of tosylarginine and then reacted with the methyl ester at 37° C. for 30 minutes. The remaining substrate was caused to develop a color in accordance with the Hestrin method, and the amount was determined by measuring the absorbance at 530 nm.

O=C(OCCN1CCN(CC(=O)N2CCOCC2)CC1)c1ccc(OC(=O)C2CCCc3ccccc32)cc1 (stereo not shown) [Test Compound 3, 4-{[2-[4-(Morpholinocarbonylmethyl)piperazino]ethyl]oxycarbonyl}phenyl 1,2,3,4-tetrahydro-1-naphthoate]
IC50 [1]: 0.6 µM | IC50 [2]: 500 µM | IC50 [3]: 90 µM

COc1ccc2[nH]c(C)c(CC(=O)Oc3ccc(C(=O)OCCN4CCN(C)CC4)cc3)c2c1 [Test Compound 9, 4-{[2-(4-Methylpiperazino)ethyl]oxycarbonyl}phenyl 5-methoxy-2-methylindole-3-acetate]
IC50 [1]: 0.06 µM | IC50 [2]: 300 µM | IC50 [3]: 40 µM

COc1ccc2c(c1)c(CC(=O)Oc1ccc(C(=O)OCCN3CCN(CC(=O)N4CCCC4)CC3)cc1)c(C)n2C [Test Compound 2, 4-{[2-[4-(Pyrrolidinocarbonylmethyl)piperazino]ethyl]oxycarbonyl}phenyl 1,2-dimethyl-5-methoxyindole-3-acetate]
IC50 [1]: 0.07 µM | IC50 [2]: 500 µM | IC50 [3]: 900 µM

O=C(Cc1cccc2ccccc12)Oc1ccc(C(=O)OCCN2CCN(CC(=O)N3CCCCC3)CC2)cc1 [Test Compound 5, 4-{[2-[4-(Piperidinocarbonylmethyl)piperazino]ethyl]oxycarbonyl}phenyl 1-naphtylacetate]
IC50 [1]: 0.3 µM | IC50 [2]: > 1000 µM | IC50 [3]: 9 µM

COc1ccc2[nH]c(C)c(CC(=O)Oc3ccc(C(=O)OCCN4CCN(CC(=O)N(C)C)CC4)cc3)c2c1 [Test Compound 6, 4-{[2-[4-(Dimethylaminocarbonylmethyl)piperazino]ethyl]oxycarbonyl}phenyl 5-methoxy-2-methylindole-3-acetate]
IC50 [1]: 0.5 µM | IC50 [2]: 80 µM | IC50 [3]: 60 µM

Cc1ccc(S(=O)(=O)N[C@@H](Cc2ccccc2)C(=O)CCl)cc1 [TPCK, Tosylphenylalanine chloromethyl ketone, reference compound]
IC50 [1]: 500 µM

CN(C)C(=O)CN1CCN(CCOC(=O)c2ccc(OC(=O)Cc3cccc4ccccc34)cc2)CC1 [Test Compound 4, 4-{[2-[4-(Dimethylaminocarbonylmethyl)piperazino]ethyl]oxycarbonyl}phenyl 1-naphthylacetate]
IC50 [1]: 0.3 µM | IC50 [2]: > 1000 µM | IC50 [3]: 9 µM

COc1ccc2[nH]c(C)c(CC(=O)Oc3ccc(C(=O)OCCN4CCN(CC(=O)N5CCOCC5)CC4)cc3)c2c1 [Test Compound 7, 4-{[2-[4-(Morpholinocarbonylmethyl)piperazino]ethyl]oxycarbonyl}phenyl 5-methoxy-2-methylindole-3-acetate]
IC50 [1]: 0.6 µM | IC50 [2]: 200 µM | IC50 [3]: 70 µM

COc1ccc2[nH]c(C)c(CC(=O)Oc3ccc(C=CC(=O)N4CCN(CC(=O)N5CCCC5)CC4)cc3)c2c1 [Test Compound 10, 1-[4-(5-Methoxy-2-methylindole-3-acetyloxy)cynnamoyl]-4-(pyrrolidinocarbonylmethyl)piperazine]
IC50 [1]: 0.8 µM | IC50 [2]: 600 µM | IC50 [3]: 300 µM

COc1ccc2[nH]c(C)c(CC(=O)Oc3ccc(C(=O)NCCN4CCN(CC(=O)N5CCOCC5)CC4)cc3)c2c1 [Test Compound 11, 4-{[2-[4-(Morpholinocarbonylmethyl)piperazino]ethyl]carbamoyl}phenyl 5-methoxy-2-methylindole-3-acetate]
IC50 [1]: 0.6 µM | IC50 [2]: 80 µM | IC50 [3]: 100 µM

COc1ccc2[nH]cc(CC(=O)Oc3ccc(C(=O)OCCN4CCN(CC(=O)N5CCCC5)CC4)cc3)c2c1 [Test Compound 8, 4-{[2-[4-(Pyrrolidinocarbonylmethyl)piperazino]ethyl]oxycarbonyl}phenyl 5-methoxyindole-3-acetate]
IC50 [1]: 0.05 µM | IC50 [2]: > 1000 µM | IC50 [3]: 600 µM

COc1ccc2[nH]c(C)c(CC(=O)Oc3ccc(C(=O)OCCN4CCN(CCN5CCOCC5)CC4)cc3)c2c1 [Test Compound 1, 4-{[2-[4-[2-(Morpholino)ethyl]piperazino]ethyl]oxycarbonyl}phenyl 5-methoxy-2-methylindole-3-acetate]
IC50 [1]: 0.1 µM | IC50 [2]: 50 µM | IC50 [3]: 100 µM
